For one test, the target named is HLA-B*42:01 (Homo sapiens, UniProt P01889, D138N/E176V/E187T/K202T/R180D). Briefly: biochemical. Type of test: binding.
In test [1] the test system is HIV-specific CD8^+ T-cell responses. Briefly: IFNγ ELISpot with overlapping and optimal peptides. As to conditions: IFNγ ELISpot responders among HLA-B*42:01^+ individuals, stratified for lack of HLA-B*07:02/39:10/42:02/81:01 co-expression (n=154). Type of test: cell-based, human.

Where no end group is shown, it is not given here.

In turn, IIKDYGKQM [Int-IM9] had a Kd on HLA-B*42:01 of 19 nM. KVVPRRKAKIIKDYGKQM [Int-275] registered a targeting frequency in test [1] of 53%.

For the origin of these results see publication PMC4433859 (Journal of immunology (Baltimore, Md. : 1950), 2015).
